Laboratory results published in ChEMBL document CHEMBL3244022, “Total syntheses of (+/-)-1-carbacefoxitin and -cefamandole and (+/-)-1-oxacefamandole” (1977).
In brackets after ≈: the same amount, converted by molar mass.

Experiments:
Type in all cases: functional
Enterobacter = test: Antimicrobial activity against Enterobacter 2902 by agar dilution method
Enterobacteriaceae [1] = test: Antimicrobial activity against Aerobacter 2828 by agar dilution method
Klebsiella = test: Antimicrobial activity against Klebsiella 2882 by agar dilution method
Serratia = test: Antimicrobial activity against Serratia 2852 by agar dilution method
Escherichia coli = test: Antimicrobial activity against Escherichia coli 2884 by agar dilution method
Staphylococcus aureus = test: Antimicrobial activity against Staphylococcus aureus 2865 by agar dilution method
Enterococcus = test: Antimicrobial activity against Enterococcus 2862 by agar dilution method
Providencia = test: Antimicrobial activity against Providencia 2851 by agar dilution method
Proteus vulgaris = test: Antimicrobial activity against Proteus vulgaris 2829 by agar dilution method
Proteus mirabilis = test: Antimicrobial activity against Proteus mirabilis 2830 by agar dilution method
Enterobacteriaceae [2] = test: Antimicrobial activity against Aerobacter 2826 by agar dilution method
Morganella morganii = test: Antimicrobial activity against Proteus morganii 2834 by agar dilution method
Streptococcus pyogenes = test: Antimicrobial activity against Streptococcus pyogenes 3124 by agar dilution method
Pseudomonas = test: Antimicrobial activity against Pseudomonas by agar dilution method

MIC (Enterobacter) [µg/mL] | MIC (Enterobacteriaceae [1]) [µg/mL] | MIC (Klebsiella) [µg/mL] | MIC (Serratia) [µg/mL] | MIC (Escherichia coli) [µg/mL] | MIC (Staphylococcus aureus) [µg/mL] | MIC (Enterococcus) [µg/mL] | MIC (Providencia) [µg/mL] | MIC (Proteus vulgaris) [µg/mL] | MIC (Proteus mirabilis) [µg/mL] | MIC (Enterobacteriaceae [2]) [µg/mL] | MIC (Morganella morganii) [µg/mL] | MIC (Streptococcus pyogenes) [µg/mL] | MIC (Pseudomonas) [µg/mL] | Compound
> 100 | > 100 | 1.56 | > 100 | 1.56 | 1.56 | > 100 | 6.25 | 6.25 | 25 | 1.56 | 6.25 | 3.12 | > 100 | Cn1nnnc1SCC1=C(C(=O)O)N2C(=O)[C@@H](NC(=O)C(O)c3ccccc3)[C@H]2CC1 (mixture of isomers)
12.5 (≈ 28 µM) | 25 (≈ 56 µM) | 0.78 (≈ 1.75 µM) | > 100 | < 0.39 | < 0.39 | 25 (≈ 56 µM) | 2.56 (≈ 5.73 µM) | 1.28 (≈ 2.87 µM) | 100 (≈ 224 µM) | < 0.39 | 1.28 (≈ 2.87 µM) | < 0.39 | > 100 | Cn1nnnc1SCC1=C(C(=O)O)N2C(=O)[C@@H](NC(=O)[C@H](O)c3ccccc3)[C@H]2OC1 (racemic)
> 100 | > 100 | 6.25 (≈ 15.3 µM) | 50 (≈ 122 µM) | 12.5 (≈ 30.5 µM) | 6.25 (≈ 15.3 µM) | > 100 | 6.25 (≈ 15.3 µM) | 6.25 (≈ 15.3 µM) | 12.5 (≈ 30.5 µM) | 12.5 (≈ 30.5 µM) | 6.25 (≈ 15.3 µM) | 6.25 (≈ 15.3 µM) | > 100 | CO[C@@]1(NC(=O)Cc2cccs2)C(=O)N2C(C(=O)O)=C(COC(N)=O)CC[C@@H]21 (racemic)
50 (≈ 108 µM) | 50 (≈ 108 µM) | 1.56 (≈ 3.37 µM) | > 100 | < 0.39 | < 0.39 | 50 (≈ 108 µM) | 3.12 (≈ 6.75 µM) | 1.56 (≈ 3.37 µM) | 6.25 (≈ 13.5 µM) | < 0.39 | 6.25 (≈ 13.5 µM) | < 0.39 | > 100 | Cn1nnnc1SCC1=C(C(=O)O)N2C(=O)[C@@H](NC(=O)[C@H](O)c3ccccc3)[C@H]2SC1 [CEFAMANDOLE]
> 100 | > 100 | 3.12 (≈ 7.3 µM) | 25 (≈ 58.5 µM) | 1.56 (≈ 3.65 µM) | 1.56 (≈ 3.65 µM) | > 100 | 1.56 (≈ 3.65 µM) | < 0.39 | 1.56 (≈ 3.65 µM) | 0.78 (≈ 1.82 µM) | 6.25 (≈ 14.6 µM) | 0.78 (≈ 1.82 µM) | > 100 | CO[C@@]1(NC(=O)Cc2cccs2)C(=O)N2C(C(=O)O)=C(COC(N)=O)CS[C@@H]21 [CEFOXITIN]
